Test results as given in ChEMBL document CHEMBL1157976, “Iridoid constituents of Tarenna attenuata” (J Nat Prod, 2006).
Active and inactive are the calls of the source. No cut-off for these calls is given here.

The molecules below were run on PC-12 (assay: Cytotoxicity against rat PC12 cells at 0.4 to 50 uM).
Format: functional, cell-based

Row | Compound | Activity
1 | COc1cc(/C=C/C(=O)O[C@H]2[C@H](O)[C@@H](O)[C@H](O[C@@H]3OC=C(C(=O)O)[C@H]4CC=C(C(=O)O)[C@@H]34)O[C@@H]2CO)ccc1O | inactive
2 | O=C(O)C1=CC[C@@H]2C(C(=O)O)=CO[C@@H](O[C@@H]3O[C@H](COC(=O)c4ccccc4)[C@@H](O)[C@H](O)[C@H]3O)[C@H]12 | inactive
3 | COc1cc(C(=O)OC[C@H]2O[C@@H](O[C@@H]3OC=C(C(=O)O)[C@H]4CC=C(C(=O)O)[C@@H]34)[C@H](O)[C@@H](O)[C@@H]2O)cc(OC)c1O | inactive
4 | COc1cc(C(=O)O[C@@H]2[C@@H](O)[C@H](O[C@@H]3OC=C(C(=O)O)[C@H]4CC=C(C(=O)O)[C@@H]34)O[C@H](CO)[C@H]2O)ccc1O | inactive
5 | O=C(/C=C/c1ccccc1)OC[C@H]1O[C@@H](O[C@@H]2OC=C(C(=O)O)[C@H]3CC=C(C(=O)O)[C@@H]23)[C@H](O)[C@@H](O)[C@@H]1O | inactive
6 | COC(=O)C1=CC[C@@H]2C(C(=O)O)=CO[C@@H](O[C@@H]3O[C@H](CO)[C@@H](O)[C@H](O)[C@H]3O)[C@H]12 | inactive
7 | COc1cc(C(=O)OC[C@H]2O[C@@H](O[C@@H]3OC=C(C(=O)O)[C@H]4CC=C(C(=O)O)[C@@H]34)[C@H](O)[C@@H](O)[C@@H]2O)ccc1O | inactive
8 | COc1cc(/C=C/C(=O)OC[C@H]2O[C@@H](O[C@@H]3OC=C(C(=O)O)[C@H]4CC=C(C(=O)O)[C@@H]34)[C@H](O)[C@@H](O)[C@@H]2O)ccc1O | inactive
9 | O=C(O)C1=CC[C@@H]2C(C(=O)O)=CO[C@@H](O[C@@H]3O[C@H](CO)[C@@H](O)[C@H](O)[C@H]3O)[C@H]12 | inactive

The molecules below were run on PC-12 (assay: Antioxidant activity against H2O2-induced impairment of rat PC12 cells apoptosis at 0.4 to 50 uM).
Format: functional, cell-based

Row | Compound | Activity
10 | COc1cc(/C=C/C(=O)O[C@H]2[C@H](O)[C@@H](O)[C@H](O[C@@H]3OC=C(C(=O)O)[C@H]4CC=C(C(=O)O)[C@@H]34)O[C@@H]2CO)ccc1O | inactive
11 | O=C(O)C1=CC[C@@H]2C(C(=O)O)=CO[C@@H](O[C@@H]3O[C@H](COC(=O)c4ccccc4)[C@@H](O)[C@H](O)[C@H]3O)[C@H]12 | inactive
12 | COc1cc(C(=O)OC[C@H]2O[C@@H](O[C@@H]3OC=C(C(=O)O)[C@H]4CC=C(C(=O)O)[C@@H]34)[C@H](O)[C@@H](O)[C@@H]2O)cc(OC)c1O | inactive
13 | COc1cc(C(=O)O[C@@H]2[C@@H](O)[C@H](O[C@@H]3OC=C(C(=O)O)[C@H]4CC=C(C(=O)O)[C@@H]34)O[C@H](CO)[C@H]2O)ccc1O | inactive
14 | O=C(/C=C/c1ccccc1)OC[C@H]1O[C@@H](O[C@@H]2OC=C(C(=O)O)[C@H]3CC=C(C(=O)O)[C@@H]23)[C@H](O)[C@@H](O)[C@@H]1O | inactive
15 | COC(=O)C1=CC[C@@H]2C(C(=O)O)=CO[C@@H](O[C@@H]3O[C@H](CO)[C@@H](O)[C@H](O)[C@H]3O)[C@H]12 | inactive
16 | COc1cc(C(=O)OC[C@H]2O[C@@H](O[C@@H]3OC=C(C(=O)O)[C@H]4CC=C(C(=O)O)[C@@H]34)[C@H](O)[C@@H](O)[C@@H]2O)ccc1O | inactive
17 | COc1cc(/C=C/C(=O)OC[C@H]2O[C@@H](O[C@@H]3OC=C(C(=O)O)[C@H]4CC=C(C(=O)O)[C@@H]34)[C@H](O)[C@@H](O)[C@@H]2O)ccc1O | inactive
18 | O=C(O)C1=CC[C@@H]2C(C(=O)O)=CO[C@@H](O[C@@H]3O[C@H](CO)[C@@H](O)[C@H](O)[C@H]3O)[C@H]12 | inactive
